# From patent publication US8586596B2, “Compounds as cannabinoid receptor ligands” (AbbVie Inc., priority 2010, dated 2013)
# Read-outs that look alike come from different tables or passages of the source.
# Assays:
# human CB2 receptors = molecular target: T1, human CB2 receptors (Homo sapiens, UniProt P34972); experiment: CB2 radioligand binding assay ([3H]CP 55,940 competition), human
# T1 construct: expressed in transfected cells; membrane preparation
# rat CB2 receptors = molecular target: T2, rat CB2 receptors (Rattus norvegicus, UniProt Q9QZN9); experiment: CB2 radioligand binding assay ([3H]CP 55,940 competition), rat
# T2 construct: expressed in transfected cells; membrane preparation
# T2 sequence (Q9QZN9 1-360): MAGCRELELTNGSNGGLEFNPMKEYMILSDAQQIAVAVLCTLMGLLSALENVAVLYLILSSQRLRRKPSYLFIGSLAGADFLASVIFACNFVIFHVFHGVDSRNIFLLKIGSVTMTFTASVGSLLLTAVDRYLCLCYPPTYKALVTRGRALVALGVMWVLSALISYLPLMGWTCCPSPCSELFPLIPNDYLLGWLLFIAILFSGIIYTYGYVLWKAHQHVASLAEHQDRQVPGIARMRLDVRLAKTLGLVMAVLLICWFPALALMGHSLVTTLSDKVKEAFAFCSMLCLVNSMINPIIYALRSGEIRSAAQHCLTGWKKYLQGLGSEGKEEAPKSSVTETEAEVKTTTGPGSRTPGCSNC
# T1 sequence (P34972 whole entry): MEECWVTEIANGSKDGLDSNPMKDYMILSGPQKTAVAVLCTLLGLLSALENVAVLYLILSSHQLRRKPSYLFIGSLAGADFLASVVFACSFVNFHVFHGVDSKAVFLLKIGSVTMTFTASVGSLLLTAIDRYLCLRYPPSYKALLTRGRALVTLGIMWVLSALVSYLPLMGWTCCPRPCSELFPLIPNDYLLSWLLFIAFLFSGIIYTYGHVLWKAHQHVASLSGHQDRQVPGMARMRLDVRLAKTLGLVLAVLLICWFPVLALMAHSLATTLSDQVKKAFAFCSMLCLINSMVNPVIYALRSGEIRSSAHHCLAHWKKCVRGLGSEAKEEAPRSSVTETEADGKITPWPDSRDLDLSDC
SMILES,"Ki (human CB2 receptors; membranes of HEK293 cells stably expressing human CB2, 0.5 nM [3H]CP 55,940, read-out: human CB2 binding (Ki)) [nM]","Ki (rat CB2 receptors; membranes of HEK293 cells stably expressing rat CB2, 0.5 nM [3H]CP 55,940, read-out: rat CB2 binding (Ki)) [nM]",Ki (human CB2 receptors) [nM],Ki (rat CB2 receptors) [nM]
"CCCCn1/c(=N/C(=O)c2cc(C(F)(F)F)ccc2OC[C@H](C)O)sc2ncnc(O)c21 [Example 1, N-[(2Z)-1-butyl-7-hydroxy[1,3]thiazolo[5,4-d]pyrimidin-2(1H)-ylidene]-2-{[(2S)-2-hydroxypropyl]oxy}-5-(trifluoromethyl)benzamide]",233,157,,
"CCCCn1/c(=N/C(=O)c2cc(C(F)(F)F)ccc2OC[C@H](C)O)sc2nccnc21 [Example 2, N-[(2Z)-3-butyl[1,3]thiazolo[4,5-b]pyrazin-2(3H)-ylidene]-2-{[(2S)-2-hydroxypropyl]oxy}-5-(trifluoromethyl)benzamide]",,,2,4.1
"CCCCn1/c(=N/C(=O)c2cc(C(F)(F)F)ccc2OC[C@H](C)O)sc2ncncc21 [Example 3, N-[(2Z)-1-butyl[1,3]thiazolo[5,4-d]pyrimidin-2(1H)-ylidene]-2-{[(2S)-2-hydroxypropyl]oxy}-5-(trifluoromethyl)benzamide]",,,10,4
"CCCCn1/c(=N/C(=O)c2cc(C(F)(F)F)ccc2OC[C@H](C)O)sc2cnn(C)c(=O)c21 [Example 4, N-[(2Z)-3-butyl-5-methyl-4-oxo-4,5-dihydro[1,3]thiazolo[4,5-d]pyridazin-2(3H)-ylidene]-2-{[(2S)-2-hydroxypropyl]oxy}-5-(trifluoromethyl)benzamide]",,,36,5
